The results in this text go back to article PMC9951321.

Converted amounts (≈) assume the structure as drawn. Where a SMILES comes first, the peptide text is derived from it.

Test [1] has as its system E. coli. Put plainly: PGN integrity assay (susceptibility to lysozyme-mediated lysis). Particulars: cells grown with 0.625 µmol L^−1 (1/4 × MIC); 1 mg mL^−1 lysozyme, within 20 min incubation, 25 °C.
Test [2] relates to E. coli. Put plainly: K+ out-diffusion, atomic absorption spectrometry. Particulars: 4 × MIC, 1 h; untreated 13.47 µg mL^−1; n = 3.
The subject of test [3] is Pseudomonas aeruginosa ATCC 10145. As to the kind of experiment: MIC, broth micro-dilution. Type of test: cell-based. (Broth dilution looks for growth in wells or tubes with falling amounts of substance.)
The test system of test [4] is Enterococcus faecium ATCC 19434. As to the kind of experiment: MIC, broth micro-dilution. In kind it is cell-based.
The subject of the next test is Escherichia coli MDR. As to the kind of experiment: MIC, broth micro-dilution. In kind it is cell-based. Particulars: for MIC: 24 h; for MIC against E. coli MDR relative to wild-type E. coli strains: fold higher than those of wild-type E. coli strains.
The subject of test [5] is Enterobacter cloacae ATCC 13047. Put plainly: MIC, broth micro-dilution. In kind it is cell-based.
In test [6] the test system is Staphylococcus aureus ATCC 25923. Put plainly: MIC, broth micro-dilution. Type of test: cell-based.
Test [7] deals with Escherichia coli ATCC 8739. As to the kind of experiment: MIC, broth micro-dilution. Type of test: cell-based.
Test [8] deals with Staphylococcus aureus MRSA ATCC 43300. As to the kind of experiment: MIC, broth micro-dilution. Type of test: cell-based. The settings on record: 24 h.
The subject of test [9] is Salmonella Typhimurium ATCC 14028. Put plainly: MIC, broth micro-dilution. In kind it is cell-based. Particulars: 24 h.
The subject of test [10] is Acinetobacter baumannii ATCC 17978. Put plainly: MIC, broth micro-dilution. In kind it is cell-based.
Test [11] concerns Klebsiella pneumoniae ATCC 13883. As to the kind of experiment: MIC, broth micro-dilution. Type of test: cell-based.

In the case of `CC[C@H](C)[C@H](NC(=O)[C@@H](N)CCCNC(=N)N)C(=O)N[C@@H](CCCCN)C(=O)N[C@H](C(=O)N[C@@H](C)C(=O)N[C@H](C(=O)N[C@@H](Cc1c[nH]c2ccccc12)C(=O)N[C@@H](CCCNC(=N)N)C(=O)N[C@@H](CC(C)C)C(=O)N[C@@H](C)C(=O)N[C@@H](CC(C)C)C(=O)N[C@@H](CCCNC(=N)N)C(=O)N[C@@H](Cc1c[nH]c2ccccc12)C(=O)N[C@@H](CC(C)C)C(=O)N[C@@H](CCCCN)C(=O)N[C@@H](CC(C)C)C(=O)O)[C@@H](C)O)[C@@H](C)O` [KTA] (H-RIKTATWRLALRWLKL-OH), the “Reduction of OD600 nm of treated cells with lysozyme” value in the test on E. coli [1] stood at 17.2%. The “Extracellular K^+ content” value with E. coli [2] is 18.92 µg/mL.

As to `CC[C@H](C)[C@H](NC(=O)[C@@H](N)CCCNC(=N)N)C(=O)N[C@@H](CCCCN)C(=O)N[C@H](C(=O)N[C@@H](CCCNC(=N)N)C(=O)N[C@H](C(=O)N[C@@H](Cc1c[nH]c2ccccc12)C(=O)N[C@@H](CCCNC(=N)N)C(=O)N[C@@H](CC(C)C)C(=O)N[C@@H](C)C(=O)N[C@@H](CC(C)C)C(=O)N[C@@H](CCCNC(=N)N)C(=O)N[C@@H](Cc1c[nH]c2ccccc12)C(=O)N[C@@H](CC(C)C)C(=O)N[C@@H](CCCCN)C(=O)N[C@@H](CC(C)C)C(=O)O)[C@@H](C)O)[C@@H](C)O` [KTR] (H-RIKTRTWRLALRWLKL-OH), the “Extracellular K^+ content” value with E. coli [2] was determined as 21.53 µg/mL.

Broadly, the MIC is the lowest concentration found to suppress growth. As for `NC[C@H]1O[C@H](O[C@H]2[C@H](O)[C@@H](O[C@H]3O[C@H](CO)[C@@H](O)[C@H](N)[C@H]3O)[C@H](N)C[C@@H]2N)[C@H](N)C[C@@H]1O` [Tob, tobramycin], the MIC in [3] (Pseudomonas aeruginosa, ATCC10145, 24 h) came out at 4.3 µM (≈ 2.01 µg/mL); in [4] (Enterococcus faecium, ATCC19434, 24 h) it was 274 µM (≈ 128 µg/mL); in the test on Escherichia coli MDR (Escherichia coli) it was 548 µM (≈ 256 µg/mL); in test [5] (Enterobacter cloacae, ATCC13047, 24 h), 2.1 µM (≈ 0.982 µg/mL); in test [6] (Staphylococcus aureus, ATCC25923, 24 h), 17.1 µM (≈ 7.99 µg/mL); in test [7] (Escherichia coli, ATCC8739, 24 h), 4.3 µM (≈ 2.01 µg/mL). Also, the MIC in [8] (Staphylococcus aureus) stood at 548 µM (≈ 256 µg/mL); in test [9] (Salmonella enterica), 17.1 µM (≈ 7.99 µg/mL); in test [10] (Acinetobacter baumannii, ATCC17978, 24 h) it was 2.1 µM (≈ 0.982 µg/mL); in test [11] (Klebsiella pneumoniae, ATCC13883, 24 h) it was 2.1 µM (≈ 0.982 µg/mL). The “MIC against E. coli MDR relative to wild-type E. coli strains” value in the test with Escherichia coli MDR is “at least 128 fold”.

As for colistin, the MIC in [3] (Pseudomonas aeruginosa ATCC 10145, broth micro-dilution in MHB, 37 °C, 24 h, triplicate) worked out at 6.4 µM; in test [4] (Enterococcus faecium ATCC 19434, broth micro-dilution in MHB, 37 °C, 24 h, triplicate), 204.2 µM; in the test on Escherichia coli MDR (Escherichia coli MDR, multi-drug resistant clinical isolate, broth micro-dilution in MHB, 37 °C, triplicate), 102.1 µM; in test [5] (Enterobacter cloacae ATCC 13047, broth micro-dilution in MHB, 37 °C, 24 h, triplicate) it was 204.2 µM; in test [6] (Staphylococcus aureus ATCC 25923, broth micro-dilution in MHB, 37 °C, 24 h, triplicate), 12.8 µM; in test [7] (Escherichia coli ATCC 8739, broth micro-dilution in MHB, 37 °C, 24 h, triplicate), 3.2 µM. The MIC in test [8] (Staphylococcus aureus MRSA ATCC 43300, broth micro-dilution in MHB, 37 °C, triplicate) was 51.1 µM; in test [9] (Salmonella Typhimurium ATCC 14028, broth micro-dilution in MHB, 37 °C, triplicate) it was 6.4 µM; in [10] (Acinetobacter baumannii ATCC 17978, broth micro-dilution in MHB, 37 °C, 24 h, triplicate), 1.6 µM; in test [11] (Klebsiella pneumoniae ATCC 13883, broth micro-dilution in MHB, 37 °C, 24 h, triplicate), 12.8 µM. For the same compound, the “MIC against E. coli MDR relative to wild-type E. coli strains” value against Escherichia coli MDR was not below 32 fold.
